In US20260232767A1, “INTERLEUKIN-23 RECEPTOR ANTAGONIST PEPTIDES FOR USE IN THE TREATMENT OF PSORIASIS” (Janssen Pharmaceutica NV, priority 2023, published 2026):

Assays:
[1] = test system: subjects with moderate-to-severe plaque psoriasis; assay: PSSD symptom and sign scores, Example 2; format: in vivo, human
Excerpt: Secondary endpoints included additional change from baseline of Example 1 in PASI, IGA, and PSSD at Week 52, including the proportions of subjects that achieved PAST 90, PAST 100, an IGA score of cleared (0) or minimal (1), PSSD symptoms score=0, and PSSD signs score=0.

[2] = test system: subjects with moderate-to-severe plaque psoriasis; assay: Safety, adverse events, Example 1; settings: 16-week study
Experimental: Adverse events were reported and followed by the investigator. Any clinically relevant changes occurring during the study were recorded. Any clinically significant abnormalities persisting at the end of the study/early withdrawal were followed by the investigator until resolution or until a clinically stable condition was reached if possible. The evaluations of safety and tolerability include: physical examinations, vital signs, electrocardiograms, clinical safety laboratory assessments, review of concomitant medication, pregnancy testing, suicidal ideation evaluation via the Columbia—Suicide Severity Rating Scale, and tuberculosis evaluation.
Safety was assessed among all randomized and treated participants who received at least 1 dose of study agent (partial or complete) according to the assigned treatment received during the study. This is also referred to as the safety analysis set.

[3] = test system: subjects with moderate-to-severe plaque psoriasis; assay: Lipid panel laboratory values; format: in vivo, human; settings: Week 52

SMILES: CC(=O)NCCCC[C@@H]1NC(=O)[C@H](Cc2c[nH]c3c(C)cccc23)NC(=O)[C@H]([C@@H](C)O)NC(=O)[C@H](CC(N)=O)NC(=O)[C@@H](NC(C)=O)C(C)(C)SSC(C)(C)[C@@H](C(=O)N[C@@H](Cc2ccc(OCCN)cc2)C(=O)N[C@@H](Cc2ccc3ccccc3c2)C(=O)NC2(C(=O)N[C@@H](CCC(=O)O)C(=O)N[C@@H](CC(N)=O)C(=O)N[C@@H](Cc3cccnc3)C(=O)N(C)CC(N)=O)CCOCC2)NC1=O [IL-23 receptor antagonist peptide, Ac-[Pen]*-N-T-[W(7-Me)]-[Lys(Ac)]-[Pen]*-Phe[4-(2-aminoethoxy)]-[2-Nal]-[THP]-E-N-[3-Pal]-Sarc-NH2 (*[Pen]-[Pen]* formdisulfidebond)]
- Subjects Achieving PSSD Sign Score 0 at Week 52 ([1]; 50 mg QD, Subjects w/Baseline PSSD Sign Score ≥1 (Table 26, second block)): 5 (11.6%)
- Subjects achieving PSSD Sign Score = 0 at Week 52 ([1]; 100 mg QD, subjects with Baseline PSSD Sign Score ≥1): 6 (14.0%)
- COVID-19, subjects ([2]; 25 mg BID): (19.5%)
- Diarrhea, subjects ([2]; 25 mg BID): (4.9%)
- Discontinued study agent because of adverse events, subjects ([2]; 25 mg BID): (2.3%)
- Gastrointestinal disorders, subjects ([2]; 25 mg BID): (9.8%)
- Headache, subjects ([2]; 25 mg BID): (2.4%)
- Infections and infestations, subjects ([2]; 25 mg BID): (34.1%)
- Nasopharyngitis, subjects ([2]; 25 mg BID): (7.3%)
- Nervous system disorders, subjects ([2]; 25 mg BID): (4.9%)
- Respiratory, thoracic and mediastinal disorders, subjects ([2]; 25 mg BID): 0
- Subjects with 1 or more Adverse events ([2]; 25 mg BID): (48.8%)
- Upper respiratory tract infection, subjects ([2]; 25 mg BID): 0
- COVID-19, subjects ([2]; 25 mg QD): (11.6%)
- Diarrhea, subjects ([2]; 25 mg QD): (4.7%)
- Discontinued study agent because of adverse events, subjects ([2]; 25 mg QD): (7.0%)
- Gastrointestinal disorders, subjects ([2]; 25 mg QD): (7.0%)
- Headache, subjects ([2]; 25 mg QD): 0
- Infections and infestations, subjects ([2]; 25 mg QD): (34.9%)
- Nasopharyngitis, subjects ([2]; 25 mg QD): (2.3%)
- Nervous system disorders, subjects ([2]; 25 mg QD): 0
- Respiratory, thoracic and mediastinal disorders, subjects ([2]; 25 mg QD): (2.3%)
- Subjects with 1 or more Adverse events ([2]; 25 mg QD): (46.5%)
- Upper respiratory tract infection, subjects ([2]; 25 mg QD): (7.0%)
- COVID-19, subjects ([2]; 50 mg QD): (7.0%)
- Diarrhea, subjects ([2]; 50 mg QD): (9.3%)
- Discontinued study agent because of adverse events, subjects ([2]; 50 mg QD): (2.3%)
- Gastrointestinal disorders, subjects ([2]; 50 mg QD): (14.0%)
- Headache, subjects ([2]; 50 mg QD): (2.3%)
- Infections and infestations, subjects ([2]; 50 mg QD): (39.5%)
- Nasopharyngitis, subjects ([2]; 50 mg QD): (18.6%)
- Nervous system disorders, subjects ([2]; 50 mg QD): (7.0%)
- Respiratory, thoracic and mediastinal disorders, subjects ([2]; 50 mg QD): (2.3%)
- Subjects with 1 or more Adverse events ([2]; 50 mg QD): (60.5%)
- Upper respiratory tract infection, subjects ([2]; 50 mg QD): 0
- COVID-19, subjects ([2]; 100 mg BID): (9.5%)
- Diarrhea, subjects ([2]; 100 mg BID): (2.4%)
- Discontinued study agent because of adverse events, subjects ([2]; 100 mg BID): 0
- Gastrointestinal disorders, subjects ([2]; 100 mg BID): (16.7%)
- Headache, subjects ([2]; 100 mg BID): (2.4%)
- Infections and infestations, subjects ([2]; 100 mg BID): (26.2%)
- Nasopharyngitis, subjects ([2]; 100 mg BID): (4.8%)
- Nervous system disorders, subjects ([2]; 100 mg BID): (4.8%)
- Respiratory, thoracic and mediastinal disorders, subjects ([2]; 100 mg BID): (4.8%)
- Subjects with 1 or more Adverse events ([2]; 100 mg BID): (61.9%)
- Upper respiratory tract infection, subjects ([2]; 100 mg BID): (4.8%)
- COVID-19, subjects ([2]; 100 mg QD): (7.0%)
- Diarrhea, subjects ([2]; 100 mg QD): (2.3%)
- Discontinued study agent because of adverse events, subjects ([2]; 100 mg QD): 0
- Gastrointestinal disorders, subjects ([2]; 100 mg QD): (9.3%)
- Headache, subjects ([2]; 100 mg QD): (7.0%)
- Infections and infestations, subjects ([2]; 100 mg QD): (16.3%)
- Nasopharyngitis, subjects ([2]; 100 mg QD): (2.3%)
- Nervous system disorders, subjects ([2]; 100 mg QD): (7.0%)
- Respiratory, thoracic and mediastinal disorders, subjects ([2]; 100 mg QD): (7.0%)
- Subjects with 1 or more Adverse events ([2]; 100 mg QD): (44.2%)
- Upper respiratory tract infection, subjects ([2]; 100 mg QD): 0
- Deaths, MACE or malignancies [2]: no deaths, MACE or malignancies
- COVID-19, subjects ([2]; Combined doses): (10.8%)
- Diarrhea, subjects ([2]; Combined doses): (4.7%)
- Discontinued study agent because of adverse events, subjects ([2]; Combined doses): (2.3%)
- Gastrointestinal disorders, subjects ([2]; Combined doses): (11.3%)
- Headache, subjects ([2]; Combined doses): (2.8%)
- Infections and infestations, subjects ([2]; Combined doses): (30.2%)
- Nasopharyngitis, subjects ([2]; Combined doses): (7.1%)
- Nervous system disorders, subjects ([2]; Combined doses): (4.7%)
- Respiratory, thoracic and mediastinal disorders, subjects ([2]; Combined doses): (3.3%)
- Subjects with 1 or more Adverse events ([2]; Combined doses): (52.4%)
- Upper respiratory tract infection, subjects ([2]; Combined doses): (2.4%)
- Dose dependence of occurrence of AEs ([2]; across treatment groups): no evidence of dose-dependent increase
- Tolerability ([2]; all treatment groups): well-tolerated
- HDL Cholesterol change from baseline, Mean ([3]; 25 mg BID): 0.011 mmol/L
- HDL Cholesterol change from baseline, Median ([3]; 25 mg BID): -0.010 mmol/L
- LDL Cholesterol change from baseline, Mean ([3]; 25 mg BID): -0.155 mmol/L
- LDL Cholesterol change from baseline, Median ([3]; 25 mg BID): -0.105 mmol/L
- Triglycerides change from baseline, Mean ([3]; 25 mg BID): 0.144 mmol/L
- Triglycerides change from baseline, Median ([3]; 25 mg BID): 0.040 mmol/L
- HDL Cholesterol change from baseline, Mean ([3]; 25 mg QD): -0.034 mmol/L
- HDL Cholesterol change from baseline, Median ([3]; 25 mg QD): -0.023 mmol/L
- LDL Cholesterol change from baseline, Mean ([3]; 25 mg QD): 0.069 mmol/L
- LDL Cholesterol change from baseline, Median ([3]; 25 mg QD): 0.132 mmol/L
- Triglycerides change from baseline, Mean ([3]; 25 mg QD): 0.034 mmol/L
- Triglycerides change from baseline, Median ([3]; 25 mg QD): 0.040 mmol/L
- HDL Cholesterol change from baseline, Mean ([3]; 50 mg QD): -0.009 mmol/L
- HDL Cholesterol change from baseline, Median ([3]; 50 mg QD): 0.014 mmol/L
- LDL Cholesterol change from baseline, Mean ([3]; 50 mg QD): -0.146 mmol/L
- LDL Cholesterol change from baseline, Median ([3]; 50 mg QD): -0.095 mmol/L
- Triglycerides change from baseline, Mean ([3]; 50 mg QD): 0.156 mmol/L
- Triglycerides change from baseline, Median ([3]; 50 mg QD): 0.067 mmol/L
- HDL Cholesterol change from baseline, Mean ([3]; 100 mg BID): -0.027 mmol/L
- HDL Cholesterol change from baseline, Median ([3]; 100 mg BID): -0.020 mmol/L
- LDL Cholesterol change from baseline, Mean ([3]; 100 mg BID): -0.056 mmol/L
- LDL Cholesterol change from baseline, Median ([3]; 100 mg BID): -0.110 mmol/L
- Triglycerides change from baseline, Mean ([3]; 100 mg BID): 0.137 mmol/L
- Triglycerides change from baseline, Median ([3]; 100 mg BID): 0.010 mmol/L
- HDL Cholesterol change from baseline, Mean ([3]; 100 mg QD): -0.023 mmol/L
- HDL Cholesterol change from baseline, Median ([3]; 100 mg QD): -0.027 mmol/L
- LDL Cholesterol change from baseline, Mean ([3]; 100 mg QD): -0.147 mmol/L
- LDL Cholesterol change from baseline, Median ([3]; 100 mg QD): -0.060 mmol/L
- Triglycerides change from baseline, Mean ([3]; 100 mg QD): 0.024 mmol/L
- Triglycerides change from baseline, Median ([3]; 100 mg QD): -0.005 mmol/L
- HDL Cholesterol change from baseline, Mean ([3]; Combined): -0.012 mmol/L
- HDL Cholesterol change from baseline, Median ([3]; Combined): -0.020 mmol/L
- LDL Cholesterol change from baseline, Mean ([3]; Combined): -0.098 mmol/L
- LDL Cholesterol change from baseline, Median ([3]; Combined): -0.105 mmol/L
- Triglycerides change from baseline, Mean ([3]; Combined): 0.118 mmol/L
- Triglycerides change from baseline, Median ([3]; Combined): 0.020 mmol/L
- HDL Cholesterol change from baseline, Mean ([3]; Placebo → 100 mg QD): 0.013 mmol/L
- HDL Cholesterol change from baseline, Median ([3]; Placebo → 100 mg QD): -0.035 mmol/L
- LDL Cholesterol change from baseline, Mean ([3]; Placebo → 100 mg QD): -0.138 mmol/L
- LDL Cholesterol change from baseline, Median ([3]; Placebo → 100 mg QD): -0.212 mmol/L
- Triglycerides change from baseline, Mean ([3]; Placebo → 100 mg QD): 0.207 mmol/L
- Triglycerides change from baseline, Median ([3]; Placebo → 100 mg QD): 0.035 mmol/L
